# Measured values published in patent US20210299069A1, “PSAMMAPLIN A FOR MODULATING IDO EXPRESSION” (IDOGEN AB, priority 2016, published 2021).
# What was measured:
# [1] = tested on: human lung (A549) cancer cell line; details: cited from earlier work
# [2] = tested on: CNS (XF498) cancer cell line; details: cited from earlier work
# [3] = tested on: ovarian (SK-OV-3) cancer cell line; details: cited from earlier work
# naïve CD4+ CD25− T cells = test: Conversion of CD4+CD25− T cells into CD4+FoxP3+ Tregs in vitro; assay type: cell-based
# Procedure: To assess the effect of psammaplin A on the generation of Tregs, naïve CD4+ CD25− T cells were cultured with mitomycin C treated APCs plus IL-2, TGFβ and anti-CD3 in the presence or absence of psammaplin A and numbers of CD4^+ FoxP3^+ Tregs were determined by FACS after 72 h. The RNA was isolated from cell lysate, and reverse transcribed to cDNA for RT-qPCR analysis using Taqman primer probes. Expression of genes encoding Foxp3 was normalized to HPRT expression and was calibrated relative to vehicle group.
# The procedure under “Conversion of CD4+CD25− T cells into CD4+FoxP3+ Tregs in vitro” was followed. The frequencies of CD4+FoxP3+ Tregs were determined by FACS after 72 h (FIG. 3A and 3B).
# [4] = tested on: methicillin-resistant Staphylococcus aureus (MRSA); details: gram-positive bacteria, in particular MRSA; cited from earlier work
# [5] = tested on: colon (HCT15) cancer cell line; details: cited from earlier work
# [6] = tested on: skin (SK-MEL-2) cancer cell line; details: cited from earlier work
# [7] = target: hepatitis C virus NS3 helicase (Hepatitis C virus genotype 1a, UniProt P27958); details: dose-response relationship, cited from earlier work
# Chain of hepatitis C virus NS3 helicase (P27958 1027-1657): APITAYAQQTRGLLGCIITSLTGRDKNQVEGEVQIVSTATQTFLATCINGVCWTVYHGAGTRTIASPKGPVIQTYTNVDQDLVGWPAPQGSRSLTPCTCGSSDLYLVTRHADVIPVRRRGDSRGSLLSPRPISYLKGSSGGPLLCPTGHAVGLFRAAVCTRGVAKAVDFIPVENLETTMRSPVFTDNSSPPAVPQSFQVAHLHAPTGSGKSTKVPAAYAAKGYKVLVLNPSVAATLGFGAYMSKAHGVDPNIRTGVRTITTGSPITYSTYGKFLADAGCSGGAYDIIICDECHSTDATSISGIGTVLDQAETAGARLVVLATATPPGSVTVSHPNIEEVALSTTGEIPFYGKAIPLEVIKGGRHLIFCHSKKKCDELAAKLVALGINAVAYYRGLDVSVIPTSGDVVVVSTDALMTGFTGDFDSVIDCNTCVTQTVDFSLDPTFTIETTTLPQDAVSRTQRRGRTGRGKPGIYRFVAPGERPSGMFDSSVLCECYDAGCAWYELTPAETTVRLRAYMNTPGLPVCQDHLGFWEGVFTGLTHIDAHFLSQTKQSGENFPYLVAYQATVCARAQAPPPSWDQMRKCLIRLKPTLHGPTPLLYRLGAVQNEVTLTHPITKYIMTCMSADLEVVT
# [8] = tested on: IDO1 expression in THP-1 cells; test: Induction of IDO1 in THP-1 cells (RT-qPCR); assay type: cell-based, human; details: for IDO1 expression (fold change): 96 hours, vs DMSO control
# Procedure: THP-1 cells were harvested from appropriate number of T75 flasks. Cells were counted in a Bürker chamber, stained with 0.4% Trypan Blue. The appropriate number of cells for each experiment were transferred to a new tube and centrifuged at 1200 rpm, 5 min at room temperature (RT). The supernatant was discarded and fresh RPMI with 5% FBS was added to get a cell concentration of 2×10^5 cells/mL. The compound was added to the five separate wells in 6-well plates such that five different final concentrations were obtained after adding the cells. A control was added to one well in the 6-well plate to which cells were added. 1×10^6 cells per well were seeded out to achieve a total volume of 5 mL per well. The cells were incubated at 37° C. in 5% CO2 for 96 hours. After 96 hours the assay was stopped and the cells were lysed for the isolation of RNA.
# Total RNA was extracted from THP-1 cells using the RNA RNeasy Mini extraction kit (Qiagen), according to the manufacturer's instructions. A SuperScript® VILO™ RT-kit (Thermo Fisher) was used to reverse transcribe 1 μg of total RNA to cDNA and qPCR was performed. The primers used for amplification of the human IDO1 gene were 5″-[…]-3″ (forward; SEQ ID No. 1) and 5″-[…]-3″ (reverse; SEQ ID No. 2). The primers used for amplification of the endogenous reference gene for human HPRT1 were 5″-[…]-3″ (forward; SEQ ID No. 3) and 5″-[…]-3″ (reverse; SEQ ID No. 4). In brief, RT-qPCR was performed in 20 μl reaction, consisting 10 μl PowerUp SYBR Green Master Mix, 0.5 μM of each primer, 4 μl diluted cDNA for amplification of IDO1 and 1.5 μl diluted cDNA for amplification of HPRT1. An iCycler iQ real-time detection system (Stratagene, Mx3000P, La Jolla, Calif., USA) with the following thermal profile: UDG incubation at 50° C. for 2 min, then denaturation at 95° C. for 5 min, followed by 45 cycles at 94° C. for 15 s, 58° C. for 30 s, and 60° C. for 30 s, was used to perform thermocycling and real-time detection of PCR products. After amplification a melting curve analysis was performed. The RT-qPCR experiments were always run in triplicate. IDO1 was normalised to the geometric means of two HPRT1 reference gene, using the ΔCt method. Within-group comparisons were normalized to one control sample, using the ΔΔCt method.
# The procedure under “Induction of IDO1 in THP-1 cells” was followed such that the final concentrations set out in Table 1 were obtained.
# Following RNA extraction and quantification of gene expression by RT-qPRC, as described above, induction of IDO1 gene expression using Samples 1 to 6 was investigated.
# [9] = tested on: collagen-induced arthritis mouse model; test: Treatment of collagen-induced arthritis in vivo; details: DBA/1 mice, 10 mg/kg for 4 days from arthritis onset, scores monitored 10 days, vs vehicle
# Procedure: DBA/1 mice were immunized with bovine type II collagen emulsified in complete Freund's adjuvant. The mice were treated with psammaplin A (10 mg/kg) for 4 days, starting on the day of arthritis onset. Treatment was then stopped. Negative controls received vehicle alone. Clinical scores were monitored for 10 days following onset of arthritis. A clinical scoring system was used as follows. Arthritis severity was scored by an experienced non-blinded investigator as follows: 0=normal, 1=slight swelling and/or erythema, 2=pronounced swelling, 3=ankylosis. All four limbs were scored, giving a maximum possible score of 12 per animal.
# The procedure under “Treatment of collagen-induced arthritis in vivo” was followed.
# Disease severity was evaluated daily and the mean clinical score of each treatment group was determined. The data points on the graph in FIG. 2 are the mean±SEM of the mice in each treatment.
smiles,measurement,setting,value
O=C(NCCSSCCNC(=O)/C(Cc1ccc(O)c(Br)c1)=N/O)/C(Cc1ccc(O)c(Br)c1)=N/O [psammaplin A],cytotoxicity,[1],significant cytotoxicity
same,cytotoxicity,[2],significant cytotoxicity
same,cytotoxicity,[3],significant cytotoxicity
same,frequencies of CD4+FoxP3+ Tregs (FACS),"naïve CD4+ CD25− T cells; co-culture with mitomycin C treated APCs plus IL-2, TGFβ and anti-CD3, 72 h, vs control (nil)",increased in a dose-dependent manner
same,relative expression of the Foxp3 gene (RT-qPCR),"naïve CD4+ CD25− T cells; normalized to HPRT, relative to vehicle group (nil)",increased in a dose-dependent manner
same,antimicrobial effect,[4],antimicrobial effect
same,cytotoxicity,[5],significant cytotoxicity
same,cytotoxicity,[6],significant cytotoxicity
same,NS3 ATPase activity inhibition,[7],inhibits NS3 helicase and ATPase activities
same,NS3 helicase activity inhibition,[7]; non-competitive,inhibits NS3 helicase
same,IDO1 expression (fold change),[8]; 0.05 micromolar,0.9 fold change
same,IDO1 expression (fold change),[8]; 0.1 micromolar,0.6 fold change
same,IDO1 expression (fold change),[8]; 1 micromolar,0.9 fold change
same,IDO1 expression (fold change),[8]; 3 micromolar,4.5 fold change
same,IDO1 expression (fold change),[8]; 5 micromolar,20 fold change
same,increase of IDO1 gene expression (maximum),"[8]; psammaplin A alone, highest level at 5 micromolar",up to 20 fold
same,disease severity (mean clinical score),[9],successful in reducing disease severity
